This is an account of results in ChEMBL document CHEMBL4017480, “Discovery and optimization of selective FGFR4 inhibitors via scaffold hopping” (Bioorg Med Chem Lett, 2017).

Series [1] in a line: Intrinsic clearance in mouse liver microsomes at 1 uM measured after 60 mins in presence of NADPH by LC-MS/MS analysis. In kind it is ADME, microsome. The following applies: read-out: CLH. (In general: Liver microsomes are vesicles of endoplasmic reticulum, rich in cytochrome P450 enzymes.)
In a further series the test system is Plasma. The experiment in a line: Drug degradation in human plasma measured after 2 hrs by metabolite identification method. It is filed as ADME, cell-free.
Series [2] can be described thus: Apparent permeability from apical to basolateral side in MDCK2-MDR1 cells at 2 uM after 2.5 hrs LC-MS/MS analysis. It is filed as ADME, cell-based, Canis lupus familiaris. The following applies: dog, MDCK-MDR1.
Series [3] in a line: Stability in mouse plasma assessed as compound remaining at 2 uM measured after 2 hrs by LC-MS/MS analysis. The conditions noted are these: read-out: Stability. In kind it is ADME, cell-free.
The target in series [4] is Fibroblast growth factor receptor 4 (Homo sapiens, UniProt P22455). The experiment in a line: Inhibition of recombinant human N-terminal His-tagged FGFR4 cytoplasmic domain […] expressed in baculovirus expression system using tyr 04 peptide as substrate measured within 90 mins by Z-LYTE assay.
Chain of Fibroblast growth factor receptor 4 (P22455 whole entry, the tested form may be a part): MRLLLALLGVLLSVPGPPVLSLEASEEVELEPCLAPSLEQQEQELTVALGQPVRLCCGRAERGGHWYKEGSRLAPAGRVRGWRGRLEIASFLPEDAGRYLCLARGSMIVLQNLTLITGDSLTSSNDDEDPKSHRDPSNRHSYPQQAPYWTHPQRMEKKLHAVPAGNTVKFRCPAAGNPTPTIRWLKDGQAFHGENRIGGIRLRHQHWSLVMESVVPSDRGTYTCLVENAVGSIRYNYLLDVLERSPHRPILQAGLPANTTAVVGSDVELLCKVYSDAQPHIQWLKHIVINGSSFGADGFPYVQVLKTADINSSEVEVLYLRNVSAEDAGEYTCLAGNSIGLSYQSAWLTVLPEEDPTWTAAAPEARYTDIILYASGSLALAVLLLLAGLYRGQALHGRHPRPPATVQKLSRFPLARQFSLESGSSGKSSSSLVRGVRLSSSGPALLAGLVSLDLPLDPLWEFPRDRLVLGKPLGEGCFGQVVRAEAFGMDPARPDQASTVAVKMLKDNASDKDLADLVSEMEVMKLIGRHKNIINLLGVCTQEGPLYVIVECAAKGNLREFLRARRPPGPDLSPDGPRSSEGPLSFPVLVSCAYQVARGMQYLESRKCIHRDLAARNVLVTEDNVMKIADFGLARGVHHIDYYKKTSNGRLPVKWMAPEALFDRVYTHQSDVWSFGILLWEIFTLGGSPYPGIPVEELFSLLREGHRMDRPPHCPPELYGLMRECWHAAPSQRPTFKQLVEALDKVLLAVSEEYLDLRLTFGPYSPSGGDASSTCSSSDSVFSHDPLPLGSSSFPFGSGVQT
The target of series [5] is Fibroblast growth factor receptor 1 (Homo sapiens, UniProt P11362). The experiment in a line: Inhibition of recombinant human His-tagged FGFR1 cytoplasmic domain (308 to 731 residues) expressed in baculovirus expression system using tyr 04 as substrate measured within 60 mins by Z-LYTE assay.
Chain of Fibroblast growth factor receptor 1 (P11362 whole entry, the tested form may be a part): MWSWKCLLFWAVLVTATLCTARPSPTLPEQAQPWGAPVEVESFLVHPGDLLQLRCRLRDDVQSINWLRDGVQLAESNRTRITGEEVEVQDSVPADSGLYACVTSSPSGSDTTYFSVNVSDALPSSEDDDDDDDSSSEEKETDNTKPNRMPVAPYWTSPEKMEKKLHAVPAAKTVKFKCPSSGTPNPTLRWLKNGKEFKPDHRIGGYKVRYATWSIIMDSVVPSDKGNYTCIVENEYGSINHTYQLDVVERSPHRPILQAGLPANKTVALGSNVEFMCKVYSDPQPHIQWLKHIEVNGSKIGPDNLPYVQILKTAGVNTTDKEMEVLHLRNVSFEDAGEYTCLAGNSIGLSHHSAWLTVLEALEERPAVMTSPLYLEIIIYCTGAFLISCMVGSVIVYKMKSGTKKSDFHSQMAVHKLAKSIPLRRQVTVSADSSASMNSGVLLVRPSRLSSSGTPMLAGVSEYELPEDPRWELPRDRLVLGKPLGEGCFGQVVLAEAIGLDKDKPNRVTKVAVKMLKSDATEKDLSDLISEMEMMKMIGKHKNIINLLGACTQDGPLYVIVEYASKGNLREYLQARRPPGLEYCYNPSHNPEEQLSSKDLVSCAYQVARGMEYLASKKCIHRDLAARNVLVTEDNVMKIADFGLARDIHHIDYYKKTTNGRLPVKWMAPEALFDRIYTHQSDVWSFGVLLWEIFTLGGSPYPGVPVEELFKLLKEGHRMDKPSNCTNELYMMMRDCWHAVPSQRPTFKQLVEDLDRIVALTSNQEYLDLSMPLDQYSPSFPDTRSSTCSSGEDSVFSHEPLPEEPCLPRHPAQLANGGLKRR
Series [6] in a line: Efflux ratio of apparent permeability from basolateral to apical over apical to basolateral side in MDCK2-MDR1 cells at 2 uM after 2.5 hrs LC-MS/MS analysis. In kind it is ADME, cell-based, Canis lupus familiaris. The conditions noted are these: dog, MDCK-MDR1.
The nature of series [7]: Unbound plasma concentration in rat at 2 uM measured after 4 hrs by LC-MS/MS analysis. In kind it is ADME, cell-free.
The nature of series [8]: Unbound plasma concentration in human at 2 uM measured after 4 hrs by LC-MS/MS analysis. In kind it is ADME, cell-free.
The nature of series [9]: Volume of distribution in Balb/c mouse at 0.2 mg/kg, iv administered as single bolus dose by LC-MS/MS analysis. It is filed as ADME, organism-based. The following applies: in vivo.
The target in series [10] is T1, Tyrosine-protein kinase Tec (Homo sapiens) (UniProt P42680).
T1 sequence (whole entry): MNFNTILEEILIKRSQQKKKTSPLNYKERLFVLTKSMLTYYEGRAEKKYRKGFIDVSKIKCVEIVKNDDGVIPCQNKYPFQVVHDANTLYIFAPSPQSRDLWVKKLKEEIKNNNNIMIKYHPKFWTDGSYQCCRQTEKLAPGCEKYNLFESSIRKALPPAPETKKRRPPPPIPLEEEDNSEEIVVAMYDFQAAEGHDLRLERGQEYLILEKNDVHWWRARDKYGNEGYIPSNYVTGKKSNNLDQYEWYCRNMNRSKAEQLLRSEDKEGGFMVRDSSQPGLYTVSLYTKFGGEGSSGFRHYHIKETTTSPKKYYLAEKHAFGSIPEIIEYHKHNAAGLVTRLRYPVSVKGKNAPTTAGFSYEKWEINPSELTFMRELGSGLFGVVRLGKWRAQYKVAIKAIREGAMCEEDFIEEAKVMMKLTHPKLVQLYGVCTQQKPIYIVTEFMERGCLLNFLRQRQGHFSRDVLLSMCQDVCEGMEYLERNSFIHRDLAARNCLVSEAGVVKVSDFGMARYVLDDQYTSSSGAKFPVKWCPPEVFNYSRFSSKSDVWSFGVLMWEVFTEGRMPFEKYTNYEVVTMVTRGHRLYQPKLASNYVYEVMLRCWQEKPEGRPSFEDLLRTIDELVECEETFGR
The experiment in a line: Inhibition of human TEC at 10 uM using poly[Glu:Tyr] (4:1) as substrate measured after 120 mins in presence of [gamma33P]ATP by P81 ion exchange chromatographic method relative to control.

For `C=CC(=O)Nc1cccc(C)c1Nc1ncc(OCc2c(F)c(OC)cc(OC)c2F)cn1`, in series [1], the CLint scaled at 1 µM came out at 9640 mL/min/kg. In the series with Plasma, the Drug degradation is 30%. For the same molecule, the Papp A→B at 2.5 h, 2 µM in [2] amounted to 8.6 ×10⁻⁶ cm/s. For the same molecule, the remaining at 2 h, 2 µM in series [3] is 13%. In addition, the IC50 in series [4] was found to be 3 nM; in [5] it was 8.6 µM. Also, the efflux ratio at 2.5 h, 2 µM in [6] came to 1.
For `C=CC(=O)N[C@H]1COC[C@H]1Nc1ncc(OCc2c(F)c(OC)cc(OC)c2F)cn1`, in series [1], the CLint scaled at 1 µM came out at 474 mL/min/kg. Further, the fraction unbound at 4 h, 2 µM was determined as 0.309 in [7] and 0.354 in series [8]. The molecule also had a Vd in series [9] of 0.58 L/kg. Further, the Papp A→B at 2.5 h, 2 µM in series [2] is 7.3 ×10⁻⁶ cm/s. For the same molecule, the remaining at 2 h, 2 µM in series [3] worked out at 97%. For the same molecule, the IC50 in [4] is 13 nM; in [5], 3.5 µM. Besides, in series [6], the efflux ratio at 2.5 h, 2 µM was 3.8. The inhibition in series [10] was -1%.
In the case of `C=CC(=O)Nc1cccc(C)c1Nc1ncc2cc(-c3c(Cl)c(OC)cc(OC)c3Cl)ccc2n1`, the CLint scaled at 1 µM in series [1] amounted to 97 mL/min/kg. Also, in [2], the Papp A→B at 2.5 h, 2 µM was 0.35 ×10⁻⁶ cm/s. Moreover, in [3], the remaining at 2 h, 2 µM came out at 63%. For the same molecule, the inhibition in [10] was -5%.

By Papp A→B is commonly meant the apparent permeability from the apical to the basolateral side of a cell layer. As usually defined, the IC50 is the concentration at which inhibition is half-maximal. As a reminder, the efflux ratio is a quotient of directional permeabilities that is used to spot active efflux. In general, fraction unbound refers to free concentration divided by total concentration. One may read the Vd as the apparent volume that relates the amount in the body to the concentration in plasma or blood. A low value points to confinement near the circulation. As usually defined, the inhibition is the relative decrease from the control value, in per cent.
